Patent publication US8609690B2, “Aryl- and heteroarylcarbonyl derivatives of substituted nortropanes, medicaments containing such compounds and their use” (Boehringer Ingelheim International GmbH, priority 2008, dated 2013)

molecular target: T1, 11β-HSD 1 (Homo sapiens, UniProt P28845); assay: In vitro inhibition of 11β-HSD 1, HTRF detection of cortisol generated by human liver microsomes; type: biochemical; settings: 1 μM test compound, 100% indicates no inhibition, zero or below zero indicates complete inhibition (relative to carbenoxolone)
T1 construct: detecting cortisol generated from cortisterone by human liver microsomes; from tissue; host or cells: human liver microsomes
T1 sequence (P28845 whole entry): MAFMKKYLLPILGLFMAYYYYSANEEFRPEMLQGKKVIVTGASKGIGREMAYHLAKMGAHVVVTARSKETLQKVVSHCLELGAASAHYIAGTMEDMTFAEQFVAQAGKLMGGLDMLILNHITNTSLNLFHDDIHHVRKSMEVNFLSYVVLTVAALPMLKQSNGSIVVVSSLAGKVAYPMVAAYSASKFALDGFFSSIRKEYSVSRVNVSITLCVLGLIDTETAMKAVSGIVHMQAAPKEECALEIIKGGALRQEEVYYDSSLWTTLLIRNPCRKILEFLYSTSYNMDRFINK
In short: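 Human liver microsomes with test compound were incubated 1 h at 37 °C in Tris buffer, pH 6.0, with 200 μM NADPH and 80 nM cortisone. Cortisol formed was detected by competitive HTRF immunoassay (665/615 nm ratio) and calibrated against a cortisol standard curve. Values are activities at 1 μM compound relative to carbenoxolone, where 100% indicates no inhibition.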

| Structure (SMILES) | Inhibitory activity on 11β-HSD 1, % CTL |
| --- | --- |
| O=C(c1ccccc1Cl)N1[C@@H]2CC[C@H]1C[C@@H](c1ccc(F)cc1)C2 [Example 111, endo-(2-Chloro-phenyl)-[3-(4-fluoro-phenyl)-8-aza-bicyclo[3.2.1]oct-8-yl]-methanone] | 61 % CTL |
| O=C(c1ccc(Cl)cc1)N1[C@@H]2CC[C@H]1C[C@@H](c1ccc(F)cc1)C2 [Example 112, endo-(4-Chloro-phenyl)-[3-(4-fluoro-phenyl)-8-aza-bicyclo[3.2.1]oct-8-yl]-methanone] | 40 % CTL |
| O=C(c1ccc2[nH]ccc2c1)N1[C@@H]2CC[C@H]1C[C@@H](c1ccc(F)cc1)C2 [Example 113, endo-[3-(4-Fluoro-phenyl)-8-aza-bicyclo[3.2.1]oct-8-yl]-(1H-indol-5-yl)-methanone] | −23 % CTL |
| O=C(c1ccc2c(c1)OCO2)N1[C@@H]2CC[C@H]1C[C@@H](c1ccc(F)cc1)C2 [Example 114, endo-Benzo[1,3]dioxol-5-yl-[3-(4-fluoro-phenyl)-8-aza-bicyclo[3.2.1]oct-8-yl]-methanone] | −10 % CTL |
| CC(=O)Nc1ccc(C(=O)N2[C@@H]3CC[C@H]2C[C@@H](c2ccc(F)cc2)C3)cc1 [Example 115, endo-N-{4-[3-(4-Fluoro-phenyl)-8-aza-bicyclo[3.2.1]octane-8-carbonyl]-phenyl}-acetamide] | 33 % CTL |
| COc1ccc(C(=O)N2[C@@H]3CC[C@H]2C[C@@H](c2ccc(F)cc2)C3)c(OC)c1 [Example 117, endo-(2,4-Dimethoxy-phenyl)-[3-(4-fluoro-phenyl)-8-aza-bicyclo[3.2.1]oct-8-yl]-methanone] | 53 % CTL |
| COc1ccc(C(=O)N2[C@@H]3CC[C@H]2C[C@@H](c2ccc(F)cc2)C3)cc1OC [Example 118, endo-(3,4-Dimethoxy-phenyl)-[3-(4-fluoro-phenyl)-8-aza-bicyclo[3.2.1]oct-8-yl]-methanone] | −28 % CTL |
| NS(=O)(=O)c1ccc(C(=O)N2[C@@H]3CC[C@H]2C[C@@H](c2ccc(F)cc2)C3)cc1 [Example 119, endo-4-[3-(4-Fluoro-phenyl)-8-aza-bicyclo[3.2.1]octane-8-carbonyl]-benzenesulfonamide] | 95 % CTL |
| O=C(c1ccc2nn[nH]c2c1)N1[C@@H]2CC[C@H]1C[C@@H](c1ccc(F)cc1)C2 [Example 120, endo-(3H-Benzotriazol-5-yl)-[3-(4-fluoro-phenyl)-8-aza-bicyclo[3.2.1]oct-8-yl]-methanone] | 25 % CTL |
| O=C(c1ccc(CO)cc1)N1[C@@H]2CC[C@H]1C[C@@H](c1ccc(F)cc1)C2 [Example 121, endo-[3-(4-Fluoro-phenyl)-8-aza-bicyclo[3.2.1]oct-8-yl]-(4-hydroxymethyl-phenyl)-methanone] | −28 % CTL |
| Cc1ccc(C(=O)N2[C@@H]3CC[C@H]2C[C@@H](c2ccc(F)cc2)C3)c(C)c1 [Example 122, endo-(2,4-Dimethyl-phenyl)-[3-(4-fluoro-phenyl)-8-aza-bicyclo[3.2.1]oct-8-yl]-methanone] | 63 % CTL |
| COc1cc(OC)cc(C(=O)N2[C@@H]3CC[C@H]2C[C@@H](c2ccc(F)cc2)C3)c1 [Example 123, endo-(3,5-Dimethoxy-phenyl)-[3-(4-fluoro-phenyl)-8-aza-bicyclo[3.2.1]oct-8-yl]-methanone] | −17 % CTL |
| CC(=O)c1cccc(C(=O)N2[C@@H]3CC[C@H]2C[C@@H](c2ccc(F)cc2)C3)c1 [Example 124, endo-1-{3-[3-(4-Fluoro-phenyl)-8-aza-bicyclo[3.2.1]octane-8-carbonyl]-phenyl}-ethanone] | 59 % CTL |
| O=C(c1cccc(Cl)c1)N1[C@@H]2CC[C@H]1C[C@@H](c1ccc(F)cc1)C2 [Example 125, endo-(3-Chloro-phenyl)-[3-(4-fluoro-phenyl)-8-aza-bicyclo[3.2.1]oct-8-yl]-methanone] | 7 % CTL |
| CC(=O)c1ccccc1C(=O)N1[C@@H]2CC[C@H]1C[C@@H](c1ccc(F)cc1)C2 [Example 126, endo-1-{2-[3-(4-Fluoro-phenyl)-8-aza-bicyclo[3.2.1]octane-8-carbonyl]-phenyl}-ethanone] | 63 % CTL |
| COc1cccc(C(=O)N2[C@@H]3CC[C@H]2C[C@@H](c2ccc(F)cc2)C3)c1OC [Example 127, endo-(2,3-Dimethoxy-phenyl)-[3-(4-fluoro-phenyl)-8-aza-bicyclo[3.2.1]oct-8-yl]-methanone] | 85 % CTL |
| CC(=O)c1ccc(C(=O)N2[C@@H]3CC[C@H]2C[C@@H](c2ccc(F)cc2)C3)cc1 [Example 128, endo-1-{4-[3-(4-Fluoro-phenyl)-8-aza-bicyclo[3.2.1]octane-8-carbonyl]-phenyl}-ethanone] | 79 % CTL |

| Structure (SMILES) | Inhibitory activity on 11β-HSD 1, % CTL |
| --- | --- |
| O=C(c1cccc(O)c1)N1[C@@H]2CC[C@H]1C[C@@H](c1ccc(F)cc1)C2 [Example 129, endo-[3-(4-Fluoro-phenyl)-8-aza-bicyclo[3.2.1]oct-8-yl]-(3-hydroxy-phenyl)-methanone] | −1 % CTL |
| O=C(c1ccc(O)cc1)N1[C@@H]2CC[C@H]1C[C@@H](c1ccc(F)cc1)C2 [Example 130, endo-[3-(4-Fluoro-phenyl)-8-aza-bicyclo[3.2.1]oct-8-yl]-(4-hydroxy-phenyl)-methanone] | −47 % CTL |
| Cn1ccc2cc(C(=O)N3[C@@H]4CC[C@H]3C[C@@H](c3ccc(F)cc3)C4)ccc21 [Example 131, endo-[3-(4-Fluoro-phenyl)-8-aza-bicyclo[3.2.1]oct-8-yl]-(1-methyl-1H-indol-5-yl)-methanone] | −20 % CTL |
| Cc1[nH]c2ccc(C(=O)N3[C@@H]4CC[C@H]3C[C@@H](c3ccc(F)cc3)C4)cc2c1C [Example 132, endo-(2,3-Dimethyl-1H-indol-5-yl)-[3-(4-fluoro-phenyl)-8-aza-bicyclo[3.2.1]oct-8-yl]-methanone] | −36 % CTL |
| O=C(c1ccc2c(c1)OCCO2)N1C2CCC1CC(c1ccccc1)C2 (stereo not drawn) [Example 133, (2,3-Dihydro-benzo[1,4]dioxin-6-yl)-(3-phenyl-8-aza-bicyclo[3.2.1]oct-8-yl)-methanone] | −28 % CTL |
| COc1ccc([C@H]2C[C@H]3CC[C@@H](C2)N3C(=O)c2ccc3c(c2)OCCO3)cc1 [Example 134, endo-(2,3-Dihydro-benzo[1,4]dioxin-6-yl)-[3-(4-methoxy-phenyl)-8-aza-bicyclo[3.2.1]oct-8-yl]-methanone] | −5 % CTL |
| COc1ccc([C@@H]2C[C@H]3CC[C@@H](C2)N3C(=O)c2ccc3c(c2)OCCO3)cc1 [Example 135, exo-(2,3-Dihydro-benzo[1,4]dioxin-6-yl)-[3-(4-methoxy-phenyl)-8-aza-bicyclo[3.2.1]oct-8-yl]-methanone] | −35 % CTL |
| CC(C)c1ccc([C@H]2C[C@H]3CC[C@@H](C2)N3C(=O)c2ccc3c(c2)OCCO3)cc1 [Example 136, endo-(2,3-Dihydro-benzo[1,4]dioxin-6-yl)-[3-(4-isopropyl-phenyl)-8-aza-bicyclo[3.2.1]oct-8-yl]-methanone] | 17 % CTL |
| Cc1ccc([C@H]2C[C@H]3CC[C@@H](C2)N3C(=O)c2ccc3c(c2)OCCO3)cc1 [Example 138, endo-(2,3-Dihydro-benzo[1,4]dioxin-6-yl)-(3-p-tolyl-8-aza-bicyclo[3.2.1]oct-8-yl)-methanone] | 4 % CTL |
| COc1cccc([C@H]2C[C@H]3CC[C@@H](C2)N3C(=O)c2ccc3c(c2)OCCO3)c1 [Example 139, endo-(2,3-Dihydro-benzo[1,4]dioxin-6-yl)-[3-(3-methoxy-phenyl)-8-aza-bicyclo[3.2.1]oct-8-yl]-methanone] | 21 % CTL |
| O=C(c1ccc2c(c1)OCCO2)N1[C@@H]2CC[C@H]1C[C@@H](c1ccc(OC(F)(F)F)cc1)C2 [Example 140, endo-(2,3-Dihydro-benzo[1,4]dioxin-6-yl)-[3-(4-trifluoromethoxy-phenyl)-8-aza-bicyclo[3.2.1]oct-8-yl]-methanone] | −5 % CTL |
| O=C(c1ccc2c(c1)OCCO2)N1[C@@H]2CC[C@H]1C[C@@H](c1cccc(O)c1)C2 [Example 141, endo-(2,3-Dihydro-benzo[1,4]dioxin-6-yl)-[3-(3-hydroxy-phenyl)-8-aza-bicyclo[3.2.1]oct-8-yl]-methanone] | 29 % CTL |
| O=C(c1ccc2c(c1)OCCO2)N1[C@@H]2CC[C@H]1C[C@@H](c1ccc(O)cc1)C2 [Example 142, endo-(2,3-Dihydro-benzo[1,4]dioxin-6-yl)-[3-(4-hydroxy-phenyl)-8-aza-bicyclo[3.2.1]oct-8-yl]-methanone] | 31 % CTL |
| C[Si](C)(C)c1ccc([C@H]2C[C@H]3CC[C@@H](C2)N3C(=O)c2ccc3c(c2)OCCO3)cc1 [Example 143, endo-(2,3-Dihydro-benzo[1,4]dioxin-6-yl)-[3-(4-trimethyl-silyl-phenyl)-8-aza-bicyclo[3.2.1]oct-8-yl]-methanone] | 58 % CTL |
| O=C(c1ccc2c(c1)OCCO2)N1C2CCC1CC(c1ccc(Cl)cc1F)C2 (stereo not drawn) [Example 144, [3-(4-Chloro-2-fluoro-phenyl)-8-aza-bicyclo[3.2.1]oct-8-yl]-(2,3-dihydro-benzo[1,4]dioxin-6-yl)-methanone] | −59 % CTL |
| O=C(c1ccc2c(c1)OCCO2)N1C2CCC1CC(c1ccccc1F)C2 (stereo not drawn) [Example 145, (2,3-Dihydro-benzo[1,4]dioxin-6-yl)-[3-(2-fluoro-phenyl)-8-aza-bicyclo[3.2.1]oct-8-yl]-methanone] | −37 % CTL |
